Source: ChEMBL document CHEMBL1124536, “Heteroaromatic analogues of the alpha 2-adrenoreceptor partial agonist clonidine” (J Med Chem, 1989)
Values belong to the compound of their own block, whether it stands above or below them.

How the values were obtained:
[1] = target: T1, Adrenergic receptor alpha-2 (Rattus norvegicus) (UniProt P22086+P19328+P22909); experiment: In vitro agonist activity against alpha-2A adrenergic receptor in rat vas deferens; assay type: functional, tissue-based
[2] = target: T1, Adrenergic receptor alpha-2 (Rattus norvegicus); experiment: In vitro antagonistic activity against alpha-2A adrenergic receptor in rat vas deferens; Ag means compound was agonist.; assay type: functional; conditions: filed as agonist
[3] = target: T2, Adrenergic receptor alpha-1 (Rattus norvegicus) (UniProt P15823+P23944+P43140); experiment: In vitro agonist activity against alpha-1 adrenergic receptor in rat anococcygeus; assay type: functional
[4] = target: T2, Adrenergic receptor alpha-1 (Rattus norvegicus); experiment: In vitro antagonistic activity against alpha-1 adrenergic receptor in rat anococcygeus; assay type: functional
Rattus norvegicus [5] = organism: Rattus norvegicus; experiment: Antagonist activity against guanoxabenz-induced mydriasis in rat when given […]; assay type: functional
Rattus norvegicus [6] = experiment: Effective dose of the compound required to inhibit electrically evoked contractions of rat vas deferens after i.v. administration; assay type: functional; conditions: iv
Rattus norvegicus [7] = organism: Rattus norvegicus; experiment: Maximum percent inhibition electrically evoked contractions of rat vas deferens by the compound was determined as test for its agonistic activity; assay type: functional
[8] = target: T1, Adrenergic receptor alpha-2 (Rattus norvegicus); experiment: In vitro agonist activity against alpha-2 adrenoceptor in rat vas deferens; assay type: functional, tissue-based
[9] = target: T2, Adrenergic receptor alpha-1 (Rattus norvegicus); experiment: In vitro agonist activity against alpha-1 adrenoceptor in rat anococcygeus; assay type: functional
[10] = target: T2, Adrenergic receptor alpha-1 (Rattus norvegicus); experiment: In vitro antagonistic activity against alpha1 adrenoceptor in rat anococcygeus; Ag means compound was agonist.; assay type: functional; conditions: filed as agonist
[11] = target: T1, Adrenergic receptor alpha-2 (Rattus norvegicus); experiment: In vitro antagonistic activity against alpha-2 adrenoceptor in rat vas deferens; assay type: functional, tissue-based
[12] = target: T2, Adrenergic receptor alpha-1 (Rattus norvegicus); experiment: In vitro antagonistic activity against alpha-1 adrenergic receptor in rat anococcygeus; Ag means compound was agonist.; assay type: functional; conditions: filed as agonist
[13] = target: T1, Adrenergic receptor alpha-2 (Rattus norvegicus); experiment: Antagonistic potency towards alpha-2 adrenergic receptor was determined by observing twich response of rat vas deferens after i.v. administration; assay type: functional, organism-based
[14] = target: T1, Adrenergic receptor alpha-2 (Rattus norvegicus); experiment: In vitro agonist activity against Alpha-2 adrenergic receptor in rat vas deferens; assay type: functional, tissue-based
[15] = target: T1, Adrenergic receptor alpha-2 (Rattus norvegicus); experiment: In vitro antagonistic activity against Alpha-2 adrenergic receptor in rat vas deferens; Ag means compound was agonist.; assay type: functional; conditions: filed as agonist
[16] = target: T1, Adrenergic receptor alpha-2 (Rattus norvegicus); experiment: In vitro antagonistic activity against alpha-2A adrenergic receptor in rat vas deferens; assay type: functional, tissue-based
[17] = target: T1, Adrenergic receptor alpha-2 (Rattus norvegicus); conditions: Vas deferens
Description: Inhibitory activity against Alpha-2 adrenergic receptor in rat vas deferens

Rattus norvegicus [18] = organism: Rattus norvegicus; experiment: Antagonist potency for alpha 2 adrenoceptor; assay type: functional, organism-based; conditions: read-out: pA2 (converted)
[19] = target: T2, Adrenergic receptor alpha-1 (Rattus norvegicus); experiment: In vitro antagonistic activity against Alpha-1 adrenergic receptor in rat anococcygeus; assay type: functional
[20] = target: T1, Adrenergic receptor alpha-2 (Rattus norvegicus); experiment: In vitro antagonistic activity against alpha-2 adrenoceptor in rat vas deferens; Ag means compound was agonist.; assay type: functional; conditions: filed as agonist

- Potency [1]: 0.1
- Potency [2]: Agonist
- Potency [3]: 0
- Potency [4]: 0.0006
Structure (SMILES): CC(=O)N1CCOc2ccc(NC3=NCCN3)cc21.I
- AD50 (Rattus norvegicus [5]): >0.2 mg/kg
- ED40 (Rattus norvegicus [6]): 0.0179 mg/kg
- Inhibition (Rattus norvegicus [7]): 69%

- Potency [8]: 0
- Potency [9]: 0.006
- Potency [10]: Agonist
- Potency [11]: 0.0013
Structure (SMILES): O=C1COc2cc(NC3=NCCN3)ccc2N1

- Potency [1]: < 0.01
- Potency [2]: Agonist
- Potency [3]: 0.055
- Potency [12]: Agonist
Structure (SMILES): CCN1CCOc2cc(NC3=NCCN3)ccc21

- Potency [1]: 0.03
- Activity [2]: Agonist
- Potency [3]: 0.0002
- Activity [12]: Agonist
- DR2 (ug min-1 kg-1) [13]: 4.62
Structure (SMILES): CN1CCOc2cc(NC3=NCCN3)ccc21.I
- AD50 (Rattus norvegicus [5]): 0.0589 mg/kg
- ED40 (Rattus norvegicus [6]): 6.74 mg/kg
- Inhibition (Rattus norvegicus [7]): 65%

- Potency [1]: 0.025
- Potency [2]: Agonist
- Potency [3]: 0.5
- Potency [12]: Agonist
Structure (SMILES): CN1CCOc2ccc(NC3=NCCN3)cc21

Structure (SMILES): c1cc2c(cc1NC1=NCCN1)OCCO2
- Potency [14]: 1.5
- Potency [15]: Agonist
- Potency [9]: 0.01
- Potency [10]: Agonist

- Potency [1]: 0
- Potency [16]: 0.04
- Potency [3]: 0.17
- Potency [12]: Agonist
Structure (SMILES): CCN1CCc2ccc(NC3=NCCN3)cc21

Structure (SMILES): c1cc2c(cc1NC1=NCCN1)OCO2
- Potency [1]: 0.03
- Potency [16]: 0.025
- Potency [3]: 0
- Potency [4]: 0.003

- IC40 [17]: 1.99 nM
Structure (SMILES): Nc1cc(Cl)c(N=C2NCCN2)c(Cl)c1

- Potency [1]: 0.006
- Potency [2]: Agonist
- Potency [3]: 0
- Potency [4]: 2e-05
Structure (SMILES): CC(=O)N1CCc2ccc(NC3=NCCN3)cc21

- Potency [1]: 0.02
- Potency [2]: Agonist
- Potency [3]: 0
- Potency [4]: 0.001
Structure (SMILES): c1ccc(CN2CCOc3cc(NC4=NCCN4)ccc32)cc1

Structure (SMILES): Brc1c(NC2=NCCN2)ccc2nccnc12 [BRIMONIDINE]
- ED40 (Rattus norvegicus [6]): 0.0033 mg/kg
- Inhibition (Rattus norvegicus [7]): 100%

Structure (SMILES): c1ccc2c(c1)OCC(C1=NCCN1)O2 (centres undefined) [IDAZOXAN]
- AD50 (Rattus norvegicus [5]): 0.02936 mg/kg
- Kb (Rattus norvegicus [18]): 10.5 nM
- DR2 (ug min-1 kg-1) [13]: 2

- Potency [1]: 0
- Potency [16]: 0.0005
- Potency [3]: 0.002
- Potency [12]: Agonist
Structure (SMILES): O=C1COc2ccc(NC3=NCCN3)cc2N1

- Potency [1]: 0.02
- Potency [2]: Agonist
- Potency [19]: 0.0006
- DR2 (ug min-1 kg-1) [13]: 6.8
Structure (SMILES): I.O=CN1CCOc2ccc(NC3=NCCN3)cc21
- AD50 (Rattus norvegicus [5]): 0.297 mg/kg
- ED40 (Rattus norvegicus [6]): 0.385 mg/kg
- Inhibition (Rattus norvegicus [7]): 62%

- Potency [8]: 0.006
- Potency [20]: Agonist
- Potency [9]: 0.02
- Potency [10]: Agonist
Structure (SMILES): O=CN1CCOc2cc(NC3=NCCN3)ccc21

- Potency [8]: 0.49
- Potency [20]: Agonist
- Potency [9]: 0.8
- Potency [10]: Agonist
Structure (SMILES): Clc1cccc(Cl)c1NC1=NCCN1

- Potency [1]: 0.22
- Potency [2]: Agonist
- Potency [3]: 0
- Potency [4]: 0.0005
Structure (SMILES): CS(=O)(=O)N1CCOc2ccc(NC3=NCCN3)cc21.I
- AD50 (Rattus norvegicus [5]): >0.3 mg/kg
- ED40 (Rattus norvegicus [6]): 0.0273 mg/kg
- Inhibition (Rattus norvegicus [7]): 70%
